The text below walks through data of ChEMBL document CHEMBL5131477, “Design, synthesis and biological evaluation of 1,3,4-triazole-3-acetamide derivatives as potent neuraminidase inhibitors” (Bioorg Med Chem Lett, 2022).

The test is described as follows: Inhibition of Influenza A virus H5N1 Neuraminidase.
As a reminder, the IC50 is the concentration that gives 50% inhibition. Read a high IC50 as a need for much substance. `COc1ccc(C(=O)NNC(=O)CSc2nnc(-c3ccco3)[nH]2)cc1` had an IC50 of 12.2 µM. For the compound `CCc1ccc(NC(=O)CSc2nnc(-c3ccco3)[nH]2)cc1`, the IC50 turned out to be 0.11 µM. This IC50 lies about 110-fold lower than the previous one. Compound `COc1ccc(C)cc1NC(=O)CSc1nnc(-c2ccco2)[nH]1` had a concentration for half-maximal inhibition (IC50) of 28.5 µM. In the case of `COc1cc(F)ccc1NC(=O)CSc1nnc(-c2ccco2)[nH]1` it was 1.8 µM. In the case of `COc1ccc(OC)c(NC(=O)CSc2nnc(-c3ccco3)[nH]2)c1` it was 55.3 µM; in that of `COc1cccc(NC(=O)CSc2nnc(-c3ccco3)[nH]2)c1`, 0.24 µM; in that of `COc1cccc(CCNC(=O)CSc2nnc(-c3ccco3)[nH]2)c1`, 9.04 µM. In the case of `O=C(CSc1nnc(-c2ccco2)[nH]1)NCCc1cccc(F)c1` it was 8.06 µM; in that of `COc1ccc(NC(=O)CSc2nnc(-c3ccco3)[nH]2)cc1OC`, 1.43 µM; in that of `O=C(CSc1nnc(-c2ccco2)[nH]1)NCCc1ccc2c(c1)OCO2`, 1.67 µM.

On to `O=C(CSc1nnc(-c2ccco2)[nH]1)Nc1cccc(Cl)c1`, for which the IC50 turned out to be 4.33 µM. The figure for `CCC(CC)O[C@@H]1C=C(C(=O)O)C[C@H](N)[C@H]1NC(C)=O` [OSELTAMIVIR CARBOXYLATE] is 0.1 µM.
